Results from US10487068B2, “Pyridazine derivatives as RORc modulators” (Genentech, Inc., priority 2015, dated 2019).

Target: T1, RORc ligand binding domain (Homo sapiens, UniProt P51449)
T1 sequence (P51449 269-508 limits assumed): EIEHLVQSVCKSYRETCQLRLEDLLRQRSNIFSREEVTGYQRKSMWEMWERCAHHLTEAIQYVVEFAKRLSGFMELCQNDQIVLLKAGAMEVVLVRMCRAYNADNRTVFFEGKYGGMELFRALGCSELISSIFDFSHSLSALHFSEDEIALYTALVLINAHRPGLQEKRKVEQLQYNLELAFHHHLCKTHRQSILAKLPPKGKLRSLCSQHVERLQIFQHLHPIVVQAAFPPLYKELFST
Assay: In Vitro RORc Ligand Binding Assay
Settings: RORc IC50, radioligand 25-[3H]hydroxycholesterol 6 nM; 0.6 ug/mL RORc receptor; 3 h at 25° C.

| IC50 [nM] | Compound |
| --- | --- |
| 16 | CC1(C)[C@H]2CC[C@]1(c1cncc(Oc3cnccn3)n1)c1nnc(-c3c(F)cccc3F)cc12 [Example 422] |
| 9.6 | C[C@H](O)Cn1ccc(-c2cncc([C@@]34CC[C@@H](c5cc(-c6c(F)cccc6F)nnc53)C4(C)C)n2)n1 [Example 423, (S)-1-(3-(6-((5R,8S)-3-(2,6-difluorophenyl)-9,9-dimethyl-5,6,7,8-tetrahydro-5,8-methanocinnolin-8-yl)pyrazin-2-yl)-1H-pyrazol-1-yl)propan-2-ol] |
| 10.9 | CC1(C)[C@H]2CC[C@]1(c1cncc(-c3ccn(CCC#N)n3)n1)c1nnc(-c3c(F)cccc3F)cc12 [Example 424, 3-(3-(6-((5R,8S)-3-(2,6-difluorophenyl)-9,9-dimethyl-5,6,7,8-tetrahydro-5,8-methanocinnolin-8-yl)pyrazin-2-yl)-1H-pyrazol-1-yl)propanenitrile] |
| 11.4 | CNS(=O)(=O)c1cncc([C@@]23CC[C@@H](c4cc(-c5c(F)cccc5F)nnc42)C3(C)C)n1 [Example 425, 6-((5R,8S)-3-(2,6-difluorophenyl)-9,9-dimethyl-5,6,7,8-tetrahydro-5,8-methanocinnolin-8-yl)-N-methylpyrazine-2-sulfonamide] |
| 12.1 | CC(C)(O)c1nc(-c2cncc([C@@]34CC[C@@H](c5cc(-c6c(F)cccc6F)nnc53)C4(C)C)n2)oc1Br [Example 426, 2-(5-bromo-2-(6-((5R,8S)-3-(2,6-difluorophenyl)-9,9-dimethyl-5,6,7,8-tetrahydro-5,8-methanocinnolin-8-yl)pyrazin-2-yl)oxazol-4-yl)propan-2-ol] |
| 15.9 | CC1(C)[C@H]2CC[C@]1(c1cncc(-c3nc([C@@](C)(O)C(F)(F)F)co3)n1)c1nnc(-c3c(F)cccc3F)cc12 [Example 427, (R)-2-(2-(6-((5R,8S)-3-(2,6-difluorophenyl)-9,9-dimethyl-5,6,7,8-tetrahydro-5,8-methanocinnolin-8-yl)pyrazin-2-yl)oxazol-4-yl)-1,1,1-trifluoropropan-2-ol] |
| 15.7 | CC1(C)[C@H]2CC[C@]1(c1cncc(-c3nc([C@](C)(O)C(F)(F)F)co3)n1)c1nnc(-c3c(F)cccc3F)cc12 [Example 428, (S)-2-(2-(6-((5R,8S)-3-(2,6-difluorophenyl)-9,9-dimethyl-5,6,7,8-tetrahydro-5,8-methanocinnolin-8-yl)pyrazin-2-yl)oxazol-4-yl)-1,1,1-trifluoropropan-2-ol] |
| 13.8 | CC[C@](C)(O)c1coc(-c2cncc([C@@]34CC[C@@H](c5cc(-c6c(F)cccc6F)nnc53)C4(C)C)n2)n1 [Example 429, (S)-2-(2-(6-((5R,8S)-3-(2,6-difluorophenyl)-9,9-dimethyl-5,6,7,8-tetrahydro-5,8-methanocinnolin-8-yl)pyrazin-2-yl)oxazol-4-yl)butan-2-ol] |
| 15 | CC[C@@](C)(O)c1coc(-c2cncc([C@@]34CC[C@@H](c5cc(-c6c(F)cccc6F)nnc53)C4(C)C)n2)n1 [Example 430, (R)-2-(2-(6-((5R,8S)-3-(2,6-difluorophenyl)-9,9-dimethyl-5,6,7,8-tetrahydro-5,8-methanocinnolin-8-yl)pyrazin-2-yl)oxazol-4-yl)butan-2-ol] |
| 21.3 | CC1(C)[C@H]2CC[C@]1(c1cncc(-c3nc(C(O)(O)C(F)(F)F)co3)n1)c1nnc(-c3c(F)cccc3F)cc12 [Example 431, 1-(2-(6-((5R,8S)-3-(2,6-difluorophenyl)-9,9-dimethyl-5,6,7,8-tetrahydro-5,8-methanocinnolin-8-yl)pyrazin-2-yl)oxazol-4-yl)-2,2,2-trifluoroethane-1,1-diol] |
| 18 | CC(C)(O)c1nc(-c2cncc([C@@]34CC[C@@H](c5cc(-c6c(F)cccc6F)nnc53)C4(C)C)n2)oc1Cl [Example 432, 2-(5-chloro-2-(6-((5R,8S)-3-(2,6-difluorophenyl)-9,9-dimethyl-5,6,7,8-tetrahydro-5,8-methanocinnolin-8-yl)pyrazin-2-yl)oxazol-4-yl)propan-2-ol] |
| 38.5 | CC(C)(O)c1nc(-c2cncc([C@@]34CC[C@@H](c5cc(-c6c(F)cccc6F)nnc53)C4(C)C)n2)oc1CO [Example 433, 2-(2-(6-((5R,8S)-3-(2,6-difluorophenyl)-9,9-dimethyl-5,6,7,8-tetrahydro-5,8-methanocinnolin-8-yl)pyrazin-2-yl)-5-(hydroxymethyl)oxazol-4-yl)propan-2-ol] |
| 11 | CCS(=O)(=O)Cc1coc(-c2cncc([C@@]34CC[C@@H](c5cc(-c6c(F)cccc6F)nnc53)C4(C)C)n2)n1 [Example 434, 2-(6-((5R,8S)-3-(2,6-difluorophenyl)-9,9-dimethyl-5,6,7,8-tetrahydro-5,8-methanocinnolin-8-yl)pyrazin-2-yl)-4-((ethylsulfonyl)methyl)oxazole] |
| 11.7 | CC1(C)[C@H]2CC[C@]1(c1cncc(-c3nc(CS(=O)(=O)C4CC4)co3)n1)c1nnc(-c3c(F)cccc3F)cc12 [Example 435, 4-((cyclopropylsulfonyl)methyl)-2-(6-((5R,8S)-3-(2,6-difluorophenyl)-9,9-dimethyl-5,6,7,8-tetrahydro-5,8-methanocinnolin-8-yl)pyrazin-2-yl)oxazole] |
| 192 | COC(=O)c1n[nH]c(=O)cc1[C@@]12CC[C@@H](c3cc(-c4c(F)cccc4F)nnc31)C2(C)C [Example 436] |
